In article PMC4995097, “Talin-KANK1 interaction controls the recruitment of cortical microtubule stabilizing complexes to focal adhesions” (eLife, 2016):

Assays:
[1] = test system: microtubule plus ends in HeLa cells; experiment: Ratio of microtubule growth rate in the cell center and at the cell edge; format: cell-based, human; conditions: depletion and rescue, EB3-mRFP
Protocol: nEB3-mRFP dynamics was recorded by 0.5 s interval time lapse TIRF imaging. Microtubule growth was measured using kymographs obtained from EB3-mRFP time lapse image series, plotted and presented as previously described ([van der Vaart et al., 2013]). Ratio of microtubule growth in cell center to periphery was obtained as values for individual cells. Microtubule growth trajectory angle to the cell edge was manually measured in ImageJ using tracks obtained by maximum intensity projection of EB3-mRFP image series.

HA-KANK1 = experiment: Streptavidin pull down of BioGFP-talin1 constructs with HA-KANK1, Western blot; format: binding; conditions: HEK293T cells
Source text: BioGFP-tagged KANK1 mutants were constructed using PCR and pBioGFP-C1 vector as previously described ([van der Vaart et al., 2013]). Rescue constructs for BioGFP-tagged KANK1 were either based on the version previously described ([van der Vaart et al., 2013]) or a version obtained by PCR-based mutagenesis of the sequence […] to […]. mCherry-tagged paxillin construct was made by replacing GFP from pQC-GPXN ([Bouchet et al., 2011]) by mCherry (pmCherry-C1, Clontech). TagRFP-tagged paxillin construct was made by PCR-based amplification and cloning in pTagRFP-T-C1 (kind gift from Y. Mimori-Kiyosue, Riken Institute, Japan). HA-tagged KANK1 construct was generated by cloning KANK1 coding sequence into pMT2-SM-HA (gift of C. Hoogenraad, Utrecht University, The Netherlands). pLVX-IRES-Neo (pLVIN) vectors was constructed by cloning the IRES-neomycin resistance cassette from the pQCXIN plasmid (Clontech) into the pLVX-IRES-Puro plasmid (Clontech). […]
Streptavidin-based pull down assays of biotinylated proteins expressed using pBioGFP-C1 constructs transfected in HEK293T cells was performed and analyzed as previously described ([van der Vaart et al., 2013]). […] For RP-nanoLC-MS/MS, samples were resuspended in 10% formic acid (FA) / 5% DMSO and was analyzed using a Proxeon Easy-nLC100 (Thermo Scientific) connected to an Orbitrap Q-Exactive mass spectrometer. […]

## GFP-talin1-G1404L: GFP-tagged mouse talin1 with single point mutation G1404L
[1]
  microtubule growth, fold slower at cell margin/edge than in cell center: 1.5 fold
HA-KANK1
  interaction of talin1 constructs with KANK1 (in words): abrogated the interaction of full-length talin1 or its R7 fragment with full-length KANK1
